Assay results as given in patent US12263248B2, “Compounds and compositions for intracellular delivery of therapeutic agents” (ModernaTX, Inc., priority 2018, dated 2025).

Experiments:
[1] = Encapsulation efficiency of RNA (QUANT-IT RIBOGREEN RNA assay); type: physicochemical
Method: For nanoparticle compositions including an RNA, a QUANT-IT™ RIBOGREEN® RNA assay (Invitrogen Corporation Carlsbad, CA) can be used to evaluate the encapsulation of an RNA by the nanoparticle composition. The samples are diluted to a concentration of approximately […] in a TE buffer solution (10 mM Tris-HCl, 1 mM EDTA, pH 7.5). 50 μL of the diluted samples are transferred to a polystyrene 96 well plate and either 50 μL of TE buffer or 50 μL of a 2% Triton X-100 solution is added to the wells. The plate is incubated at a temperature of 37° C. for 15 minutes. The RIBOGREEN® reagent is diluted 1:100 in TE buffer, and 100 μL of this solution is added to each well. The fluorescence intensity can be measured using a fluorescence plate reader (Wallac Victor 1420 Multilabel Counter; Perkin Elmer, Waltham, MA) at an excitation wavelength of, for example, about 480 nm and an emission wavelength of, for example, about 520 nm. The fluorescence values of the reagent blank are subtracted from that of each of the samples and the percentage of free RNA is determined by dividing the fluorescence intensity of the intact sample (without addition of Triton X-100) by the fluorescence value of the disrupted sample (caused by the addition of Triton X-100).

[2] = Particle size and polydispersity index of nanoparticle compositions (Zetasizer Nano ZS); type: physicochemical
Method: A Zetasizer Nano ZS (Malvern Instruments Ltd, Malvern, Worcestershire, UK) can be used to determine the particle size, the polydispersity index (PDI) and the zeta potential of the nanoparticle compositions in 1×PBS in determining particle size and 15 mM PBS in determining zeta potential.

[3] = test system: luciferase (Luc) mRNA; test: Luc expression, whole body bioluminescence after intravenous administration to mice; type: in vivo; conditions: for Fold increase in total body Luc Flux relative to MC3 at 6 h: Table 3A; for Total Flux 3 hours / Total Flux 6 hours / Total Flux 24 hours: Luc mRNA; for flux at all timepoints measured: 3, 6 and 24 hour, in words
Method: In order to monitor how effectively various nanoparticle compositions deliver therapeutic and/or prophylactics to targeted cells, different nanoparticle compositions including a particular therapeutic and/or prophylactic (for example, a modified or naturally occurring RNA such as an mRNA) are prepared and administered to rodent populations. Mice are intravenously, intramuscularly, intraarterially, or intratumorally administered a single dose including a nanoparticle composition with a formulation such as those provided in Example 3. In some instances, mice may be made to inhale doses. Dose sizes may range from 0.001 mg/kg to 10 mg/kg, where 10 mg/kg describes a dose including 10 mg of a therapeutic and/or prophylactic in a nanoparticle composition for each 1 kg of body mass of the mouse. A control composition including PBS may also be employed.
Upon administration of nanoparticle compositions to mice, dose delivery profiles, dose responses, and toxicity of particular formulations and doses thereof can be measured by enzyme-linked immunosorbent assays (ELISA), bioluminescent imaging, or other methods. For nanoparticle compositions including mRNA, time courses of protein expression can also be evaluated. Samples collected from the rodents for evaluation may include blood, sera, and tissue (for example, muscle tissue from the site of an intramuscular injection and internal tissue); sample collection may involve sacrifice of the animals.
The efficacy of the nanoparticle compositions presented in Table 1A was evaluated with a bioluminescence study. Formulations were administered intravenously to mice (n=6) at a dosage of 0.5 mg/kg (mpk) and bioluminescence measured at 3, 6, and 24 hour time points. The standard MC3 formulation and, in some instances, a control (e.g., a PBS control) were evaluated for comparison. […] In general, flux decreased as time progressed to less than 10% of the initial flux.
(§1) Whole body and ex vivo organ bioluminescent imaging of mice: CD-1 mice were injected 15 minutes prior to the imaging timepoint intraperitoneally (IP) with 200 μL Xenolight D-luciferin K+ salt, diluted in PBS just prior to use to a concentration of 15 mg/mL. Ex vivo imaging of organs was completed within 25 minutes of luciferin administration. All images were quantified by region of interest for total flux.

[4] = test system: luciferase (Luc) mRNA; test: Luc expression in liver, lung, spleen and femur 6 hours after intravenous administration; type: in vivo; conditions: mice, 0.5 mpk; for Total Flux Liver / Total Flux Lung / Total Flux Spleen: intravenous; for Flux in the liver / Flux in the spleen: i.v., in words
Method: The efficacy of the nanoparticle compositions presented in Table 1A was further evaluated by measuring the expression of modified luciferase in the liver, lung, spleen, and femur upon administration of a given composition. Formulations were administered intravenously to mice (n=3) at a dosage of 0.5 mpk and bioluminescence measured after 6 hours. The standard MC3 formulation and a PBS control were also tested. […] Flux in the liver was lowest for compositions including Compounds 58, 59, 137, and 141. Flux in the spleen was highest for compositions including Compounds 4, 7, 33, 34, 48, 53, 108, 129, 130, and 148, and lowest for compositions including Compounds 9, 59, 124, and 141.
as §1

[5] = Table 1A, lipid:DSPC:cholesterol:PEG-DMG 50:10:38.5:1.5 mol %
[6] = Table 1B, formulated with hEPO mRNA

| SMILES | EE (%) ([1]; Table 1A) | Size (nm) [2, 5] | Fold increase in total body Luc Flux relative to MC3 at 6 h ([3]; i.v. administration) | Total Flux 3 hours ([3]; mice, i.v., 0.5 mg/kg) | Total Flux 6 hours ([3]; mice, i.v., 0.5 mg/kg) | Total Flux 24 hours ([3]; mice, i.v., 0.5 mg/kg) | Total Flux Liver [4] | Total Flux Lung [4] | Total Flux Spleen [4] | PDI ([2]; Table 1A) | flux at all timepoints measured ([3]; mice, i.v., 0.5 mg/kg) | Flux in the liver [4] | Flux in the spleen [4] | EE (%) [1, 6] | PDI [2, 6] | Size (nm) [2, 6] | 6 h Lipid/MC3 Avg. Luc Expression ([3]; Table 3C, i.v. administration) | Fold increase AUC Lipid/MC3 ([3]; Table 3C, i.v. administration) | AUC (h * p/s) ([3]; Table 3C, i.v. administration, Luc) | total flux at 3 hours ([3]; mice, i.v., 0.5 mg/kg, comparison in words) |
| --- | --- | --- | --- | --- | --- | --- | --- | --- | --- | --- | --- | --- | --- | --- | --- | --- | --- | --- | --- | --- |
| CCCCCCCCCOC(=O)CCCCCCCN(CCC#N)CCCCCCCC(=O)OC(CCCCCCCC)CCCCCCCC [Compound 21, Heptadecan-9-yl 8-((2-cyanoethyl)(8-(nonyloxy)-8-oxooctyl)amino) octanoate] | −15.1% | 53.5 nm |  |  |  |  |  |  |  |  |  |  |  |  |  |  |  |  |  |  |
| CCCCCCCCCOC(=O)CCCCCCCN(CCO)CCCCCCCC(=O)OC(CCCCCC)CCCCCC [Compound 56, nonyl 8-((2-hydroxyethyl)(8-oxo-8-(tridecan-7-yloxy)octyl)amino) octanoate] | 95.18% | 112.1 nm | 0.733 | 1.27E+10 | 8.06E+09 | 2.53E+08 | 1.04E+09 | 4.62E+06 | 1.98E+08 | 0.17 |  |  |  |  |  |  |  |  |  |  |
| CCCCCCCCCOC(=O)CCCCCCCN(CCCCCCCC(=O)OC(CCCCCCCC)CCCCCCCC)CCC(=O)O [Compound 125, 3-((8-(Heptadecan-9-yloxy)-8-oxooctyl)(8-(nonyloxy)-8-oxooctyl)amino)propanoic acid] | 79.6% | 90.9 nm |  | 2.44E+05 | 3.16E+05 |  |  |  |  | 0.16 | significantly lower flux |  |  |  |  |  |  |  |  |  |
| CCCCCCCCCOC(=O)CCCCCCCN(CCO)CCCCCCCC(=O)OC(CCC)CCC [Compound 58, heptan-4-yl 8-((2-hydroxyethyl)(8-(nonyloxy)-8-oxooctyl)amino) octanoate] | 92.54% | 130.8 nm | 0.00007 | 5.69E+05 | 7.60E+05 | 3.64E+05 | 8.71E+04 | 1.21E+04 | 2.38E+05 | 0.14 | significantly lower flux | lowest |  |  |  |  |  |  |  |  |
| CCCCCCCCCOC(=O)CCCCCCCN(CCO)CCCCCCCC(=O)OC(CC)CC [Compound 59, nonyl 8-((2-hydroxyethyl)(8-oxo-8-(pentan-3-yloxy)octyl)amino) octanoate] | 94.44% | 237.0 nm | 0.00003 | 2.75E+05 | 2.79E+05 | 1.45E+05 | 2.87E+05 | 4.41E+04 | 9.68E+04 | 0.24 | significantly lower flux | lowest | lowest |  |  |  |  |  |  |  |
| CCCCCCCCCOC(=O)CCCCCCCN(CCCCCCCC(=O)OC(CCCCCCCC)CCCCCCCC)CCCC(=O)NC [Compound 239, Heptadecan-9-yl 8-((4-(methylamino)-4-oxobutyl)(8-(nonyloxy)-8-oxooctyl)amino)octanoate] | 90.42% | 55.8 nm |  |  |  |  |  |  |  | 0.12 |  |  |  | 82.6% | 0.14 | 71.3 nm |  |  |  |  |
| CCCCCCCCCOC(=O)CCCCCCCN(CCCCCCCC(=O)OC(CCCCCCCC)CCCCCCCC)CCCn1ccc(N)nc1=O [Compound 115, Heptadecan-9-yl 8-((3-(4-amino-2-oxopyrimidin-1(2H)-yl)propyl)(8-(nonyloxy)-8-oxooctyl)amino)octanoate] | 99.7% | 64.5 nm |  | 2.13E+07 | 2.91E+07 |  |  |  |  | 0.11 |  |  |  |  |  |  |  |  |  |  |
| CCCCCCCCC(CCCCCCCC)OC(=O)CCCCCCCN(CCO)CCCC(=O)OCCCCCC [Compound 53, heptadecan-9-yl 8-((4-(hexyloxy)-4-oxobutyl)(2-hydroxyethyl)amino) octanoate] | 95.8% | 125.4 nm | 2.11 | 1.91E+10 | 2.32E+10 | 1.01E+09 | 2.02E+09 | 2.47E+07 | 8.54E+08 | 0.13 |  |  | highest |  |  |  |  |  |  |  |
| CCCCCCCCC(CCCCCCCC)OC(=O)CCCCCCCN(CCO)CCCC(=O)OCCCCC [Compound 52, heptadecan-9-yl 8-((2-hydroxyethyl)(4-oxo-4-(pentyloxy)butyl)amino) octanoate] | 93.25% | 130.5 nm |  | 2.91E+09 | 4.63E+09 | 2.55E+07 | 5.86E+08 | 2.80E+06 | 8.30E+07 | 0.19 |  |  |  |  |  |  |  |  |  |  |
| CCCCCCCCC(CCCCCCCC)OC(=O)CCCCCCCN(CCO)CCCCCCCC(=O)OC1CCC(CCCCC)CC1 (centres unmarked) [Compound 66, Heptadecan-9-yl 8-((2-hydroxyethyl)(8-oxo-8-((4-pentylcyclohexyl)oxy)octyl)amino)octanoate] | 96.52% | 76.7 nm | 0.103 | 9.66E+10 | 4.577E+10 | 5.56E+09 | 5.01E+09 | 4.20E+06 | 2.00E+07 | 0.120 |  |  |  |  |  |  | 6.28 | 8.20 | 6.76E+11 h * p/s | highest |
| CCCCCCCCC(CCCCCCCC)OC(=O)CCCCCCCN(CCO)CCCC(=O)OCCCC [Compound 51, heptadecan-9-yl 8-((4-butoxy-4-oxobutyl)(2-hydroxyethyl)amino) octanoate] | 89.83% | 148.8 nm | 0.025 | 1.34E+08 | 2.80E+08 | 6.20E+06 | 2.49E+07 | 3.67E+05 | 2.80E+07 | 0.17 |  |  |  |  |  |  |  |  |  |  |
| CCCCCCCCC(CCCCCCCC)OC(=O)CCCCCCCN(CCO)CCCCCCCCC1CC1CCCCCCCC (centres unmarked) [Compound 47, heptadecan-9-yl 8-((2-hydroxyethyl)(8-(2-octylcyclopropyl)octyl)amino)octanoate] | 96.40% | 80.6 nm |  | 6.55E+10 | 5.38E+10 | 2.09E+09 | 4.86E+09 | 8.71E+06 | 8.33E+07 | 0.10 |  |  |  |  |  |  |  |  |  |  |
